Test results as given in the supplement of paper PMC10307832.

Assays:
Experiment in all cases: relative viability (nuclei count vs DMSO), 5 days (fraction); higher = more cells survive
[1] = compound: CC1=CC=C(C=C1)C(=O)CN2C3=C(CCCC3)SC2=N [Pifithrin_alpha] + CS(=O)(=O)N1CCN(Cc2cc3nc(-c4cccc5[nH]ncc45)nc(N4CCOCC4)c3s2)CC1 [Pictilisib] (partner 1 µM)
In short: (§1)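 Relative viability equals treated-well nuclei counts divided by vehicle-well nuclei counts. Counts came from 4× images of lung cancer cell lines grown in 1536-well plates for 5 days after pin-tool dosing on the day after seeding. Dosing used one drug alone or a fixed anchor-drug dose plus five library-drug doses (not always all listed) in √10 steps, and values are medians of duplicate plates.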

Bemcentinib + Decitabine = compound: Nc1nc(Nc2ccc3c(c2)CC[C@@H](N2CCCC2)CC3)nn1-c1cc2c(nn1)-c1ccccc1CCC2 [Bemcentinib] + Nc1ncn([C@H]2C[C@H](O)[C@@H](CO)O2)c(=O)n1 [Decitabine] (partner 2 µM)
In short: as §1

Bemcentinib + Pictilisib = compound: Nc1nc(Nc2ccc3c(c2)CC[C@@H](N2CCCC2)CC3)nn1-c1cc2c(nn1)-c1ccccc1CCC2 [Bemcentinib] + CS(=O)(=O)N1CCN(Cc2cc3nc(-c4cccc5[nH]ncc45)nc(N4CCOCC4)c3s2)CC1 [Pictilisib] (partner 1 µM)
In short: as §1

[2] = compound: CC1=CC=C(C=C1)C(=O)CN2C3=C(CCCC3)SC2=N [Pifithrin_alpha] + CS(=O)(=O)CCNCc1ccc(-c2ccc3ncnc(Nc4ccc(OCc5cccc(F)c5)c(Cl)c4)c3c2)o1 [Lapatinib] (partner 2 µM)
In short: as §1

Cell Line | relative viability ([1]; first compound 1 µM) | relative viability ([1]; first compound 3.162 µM) | relative viability ([1]; first compound 10 µM) | relative viability ([1]; first compound 31.62 µM) | relative viability ([1]; first compound 100 µM) | relative viability (Bemcentinib + Decitabine; first compound 0.04 µM) | relative viability (Bemcentinib + Decitabine; first compound 0.1265 µM) | relative viability (Bemcentinib + Decitabine; first compound 0.4 µM) | relative viability (Bemcentinib + Decitabine; first compound 1.265 µM) | relative viability (Bemcentinib + Decitabine; first compound 4 µM) | relative viability (Bemcentinib + Pictilisib; first compound 0.04 µM) | relative viability (Bemcentinib + Pictilisib; first compound 0.1265 µM) | relative viability (Bemcentinib + Pictilisib; first compound 0.4 µM) | relative viability (Bemcentinib + Pictilisib; first compound 1.265 µM) | relative viability (Bemcentinib + Pictilisib; first compound 4 µM) | relative viability ([2]; first compound 1 µM) | relative viability ([2]; first compound 3.162 µM) | relative viability ([2]; first compound 10 µM) | relative viability ([2]; first compound 31.62 µM) | relative viability ([2]; first compound 100 µM)
NCI-H1734 | 0.494 | 0.491 | 0.481 | 0.381 | 0.434 | 0.401 | 0.533 | 0.595 | 0.472 | 0.447 | 0.461 | 0.487 | 0.486 | 0.48 | 0.45 | 1.05 | 1.08 | 0.953 | 0.749 | 1.07
NCI-H1755 | 0.296 | 0.451 | 0.395 | 0.307 | 0.39 | 0.724 | 0.671 | 0.726 | 0.674 | 0.718 | 0.331 | 0.459 | 0.496 | 0.485 | 0.443 | 0.96 | 1.01 | 0.966 | 0.812 | 1.23
NCI-H1792 | 0.156 | 0.244 | 0.205 | 0.178 | 0.217 | 0.582 | 0.741 | 0.594 | 0.454 | 0.63 | 0.3 | 0.281 | 0.238 | 0.337 | 0.288 | 0.68 | 1.24 | 0.83 | 0.508 | 0.878
NCI-H1793 | 0.251 | 0.388 | 0.436 | 0.341 | 0.323 | 0.475 | 0.495 | 0.5 | 0.549 | 0.586 | 0.414 | 0.38 | 0.454 | 0.395 | 0.361 | 0.692 | 0.716 | 0.505 | 0.867 | 0.739
NCI-H1915 | 0.763 | 0.902 | 0.775 |  | 0.838 | 0.24 | 0.25 | 0.255 | 0.252 | 0.257 | 0.893 | 1.04 | 0.975 | 0.962 | 0.943 | 0.923 | 1.15 | 0.883 |  | 1.13
NCI-H1944 | 0.314 | 0.341 | 0.307 |  | 0.308 | 0.413 | 0.39 | 0.443 | 0.443 | 0.417 | 0.356 | 0.342 | 0.371 | 0.357 | 0.343 | 0.755 | 0.67 | 0.517 |  | 0.598
NCI-H1975 | 0.232 | 0.18 | 0.187 | 0.193 | 0.18 | 0.336 | 0.384 | 0.394 | 0.374 | 0.459 | 0.279 | 0.291 | 0.301 | 0.28 | 0.277 | 0.895 | 0.544 | 0.655 | 0.489 | 0.761
NCI-H1993 |  | 0.747 | 0.8 | 0.673 | 0.846 | 0.541 | 0.49 | 0.627 | 0.577 | 0.68 | 0.833 | 0.853 | 0.834 | 0.904 | 0.777 |  | 0.761 | 0.73 | 0.764 | 0.777
NCI-H2009 | 0.658 | 0.78 | 0.816 | 0.365 | 0.594 | 0.404 | 0.353 | 0.492 | 0.399 | 0.434 | 0.753 | 0.928 | 0.855 | 0.914 | 0.888 | 0.368 | 0.906 | 0.847 | 0.457 | 0.813
NCI-H2023 | 0.171 | 0.193 | 0.151 | 0.142 | 0.168 | 0.204 | 0.264 | 0.233 | 0.282 | 0.224 | 0.205 | 0.261 | 0.239 | 0.276 | 0.248 | 0.274 | 0.737 | 0.638 | 0.291 | 0.589
NCI-H2085 | 0.487 | 0.498 | 0.444 | 0.43 | 0.404 | 0.539 | 0.583 | 0.498 | 0.551 | 0.554 | 0.44 | 0.468 | 0.418 | 0.459 | 0.451 | 0.626 | 0.69 | 0.691 | 0.667 | 0.661
NCI-H2087 | 0.74 | 0.872 | 0.894 | 0.453 | 0.757 | 0.295 | 0.318 | 0.281 | 0.265 | 0.302 | 0.813 | 0.973 | 1.03 | 0.813 | 0.89 | 0.991 | 0.942 | 0.913 | 0.655 | 0.972
NCI-H2126 | 0.341 | 0.482 | 0.405 | 0.427 | 0.376 | 0.582 | 0.588 | 0.601 | 0.634 | 0.557 | 0.475 | 0.483 | 0.531 | 0.485 | 0.485 | 0.614 | 0.643 | 0.68 | 0.536 | 0.658
NCI-H2170 | 0.271 | 0.302 | 0.274 | 0.278 | 0.33 | 0.457 | 0.48 | 0.463 | 0.519 | 0.479 | 0.267 | 0.324 | 0.352 | 0.259 | 0.311 | 0.263 | 0.274 | 0.287 | 0.266 | 0.263
NCI-H2347 | 0.754 | 0.145 | 0.753 | 0.408 | 0.6 | 0.653 | 0.573 | 0.665 | 0.678 | 0.639 | 0.511 | 0.488 | 0.708 | 0.82 | 0.649 | 0.811 | 0.911 | 0.902 | 0.705 | 0.911
NCI-H2405 |  | 0.39 | 0.427 | 0.403 | 0.292 | 0.74 | 0.717 | 0.799 | 0.821 | 0.761 | 0.392 | 0.513 | 0.415 | 0.517 | 0.509 |  | 0.975 | 0.991 | 0.882 | 0.975
